Measurements from patent US7932270B2 (Cytokinetics, Inc., priority 2006, dated 2011).

The molecules below were run against T1, chicken gizzard smooth muscle myosin subfragment-1 chemically crosslinked to cardiac or skeletal actin (Gallus gallus, UniProt P10587) (assay: Smooth muscle myosin ATPase dose response assay (pyruvate kinase/horseradish peroxidase/pyruvate oxidase-coupled, amplex red fluorescence)). Conditions: read-out: IC50 Arithmetic Mean.
T1 construct: chicken gizzard smooth muscle myosin subfragment-1; from tissue; host or cells: chicken gizzard
Type: biochemical
Method in brief: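 Amplex red fluorescence (480 nm excitation, 615 nm emission) tracked ATP hydrolysis by smooth muscle S1 crosslinked to actin with carbodiimide/N-hydroxysuccinimide. Reactions contained 0.15 mM ATP and 100 mM KCl at pH 7.00, 22° C. IC50 came from a four-parameter logistic fit.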

T1 sequence (P02607 2-151): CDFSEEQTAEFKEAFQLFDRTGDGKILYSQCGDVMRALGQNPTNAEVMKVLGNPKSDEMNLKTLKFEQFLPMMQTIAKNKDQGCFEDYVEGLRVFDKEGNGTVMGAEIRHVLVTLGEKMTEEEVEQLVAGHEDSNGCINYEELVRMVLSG
T1 sequence (P10587 84-789): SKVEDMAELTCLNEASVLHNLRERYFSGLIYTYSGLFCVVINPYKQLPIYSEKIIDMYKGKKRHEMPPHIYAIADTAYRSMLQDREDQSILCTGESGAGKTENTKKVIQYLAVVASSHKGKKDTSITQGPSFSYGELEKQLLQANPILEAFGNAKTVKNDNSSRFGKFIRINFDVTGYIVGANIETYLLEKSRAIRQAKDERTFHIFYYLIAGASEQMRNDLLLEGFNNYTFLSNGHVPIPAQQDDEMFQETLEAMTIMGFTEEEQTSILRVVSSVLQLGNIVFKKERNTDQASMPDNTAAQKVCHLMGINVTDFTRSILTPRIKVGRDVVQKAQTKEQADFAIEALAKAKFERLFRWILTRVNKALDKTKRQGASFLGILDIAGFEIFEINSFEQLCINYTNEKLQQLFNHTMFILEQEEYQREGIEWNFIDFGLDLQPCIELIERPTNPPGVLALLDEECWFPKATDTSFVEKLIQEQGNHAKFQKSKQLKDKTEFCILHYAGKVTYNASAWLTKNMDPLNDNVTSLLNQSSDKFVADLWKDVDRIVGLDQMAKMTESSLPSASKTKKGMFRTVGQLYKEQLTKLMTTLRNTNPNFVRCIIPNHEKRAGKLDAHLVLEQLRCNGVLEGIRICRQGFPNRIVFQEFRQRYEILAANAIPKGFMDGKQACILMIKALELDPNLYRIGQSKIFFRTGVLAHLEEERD

SMILES	IC50 [nM]
Cn1cc(-c2nc(NCCc3cccc(F)c3)c(C(=O)NCc3cccnc3CNC(=O)OC(C)(C)C)cc2Cl)cn1 [N-[(2-{[(tert-butoxy)carbonylamino]methyl}(3-pyridyl))methyl](5-chloro-2-{[2-(3-fluorophenyl)ethyl]amino}-6-(1-methylpyrazol-4-yl)(3-pyridyl))carboxamide]	414
Cn1cc(-c2nc(NCCc3cccc(F)c3)c(C(=O)NCc3cccnc3CNC(=O)OC(C)(C)C)cc2C#N)cn1 [N-[(2-{[(tert-butoxy)carbonylamino]methyl}(3-pyridyl))methyl](5-cyano-2-{[2-(3-fluorophenyl)ethyl]amino}-6-(1-methylpyrazol-4-yl)(3-pyridyl))carboxamide]	750
CC(C)(C)OC(=O)NCc1ncccc1CNC(=O)c1cc(C#N)c(-c2cn[nH]c2)nc1NCCc1cccc(F)c1 [N-[(2-{[(tert-butoxy)carbonylamino]methyl}(3-pyridyl))methyl](5-cyano-2-{[2-(3-fluorophenyl)ethyl]amino}-6-pyrazol-4-yl(3-pyridyl))carboxamide]	1000
Cn1cc(-c2nc(NCCc3cccc(F)c3)c(C(=O)NCc3cccnc3CNC(=O)OC(C)(C)C)cc2F)cn1 [N-[(2-{[(tert-butoxy)carbonylamino]methyl}(3-pyridyl))methyl](5-fluoro-2-{[2-(3-fluorophenyl)ethyl]amino}-6-(1-methylpyrazol-4-yl)(3-pyridyl))carboxamide]	388
CC(C)(C)OC(=O)NCc1ncccc1CNC(=O)c1cc(F)c(-c2ccccn2)nc1NCCc1cccc(F)c1 [N-[(2-{[(tert-butoxy)carbonylamino]methyl}(3-pyridyl))methyl](5-fluoro-2-{[2-(3-fluorophenyl)ethyl]amino}-6-(2-pyridyl)(3-pyridyl))carboxamide]	3660
CC(C)(C)OC(=O)NCc1ncccc1CNC(=O)c1cc(F)c(-c2cn[nH]c2)nc1NCCc1cccc(F)c1 [N-[(2-{[(tert-butoxy)carbonylamino]methyl}(3-pyridyl))methyl](5-fluoro-2-{[2-(3-fluorophenyl)ethyl]amino}-6-pyrazol-4-yl(3-pyridyl))carboxamide]	488
CC(C)(C)OC(=O)NCc1ncccc1CNC(=O)c1ccc(-c2ccccc2C#N)nc1NCCc1cccc(F)c1 [N-[(2-{[(tert-butoxy)carbonylamino]methyl}(3-pyridyl))methyl](6-(2-cyanophenyl)-2-{[2-(3-fluorophenyl)ethyl]amino}(3-pyridyl))carboxamide]	1210
Cc1cc(C(=O)NCc2cccnc2CNC(=O)OC(C)(C)C)c(NCCc2cccc(F)c2)nc1-c1ccccc1C#N [N-[(2-{[(tert-butoxy)carbonylamino]methyl}(3-pyridyl))methyl](6-(2-cyanophenyl)-2-{[2-(3-fluorophenyl)ethyl]amino}-5-methyl(3-pyridyl))carboxamide]	4250
CC(C)(C)OC(=O)NCc1ncccc1CNC(=O)c1cc(F)c(-c2ccccc2C#N)nc1NCCc1cccc(F)c1 [N-[(2-{[(tert-butoxy)carbonylamino]methyl}(3-pyridyl))methyl](6-(2-cyanophenyl)-5-fluoro-2-{[2-(3-fluorophenyl)ethyl]amino}(3-pyridyl))carboxamide]	5360
CN[C@H](C)CNC(=O)c1ccc(-c2ccccc2C#N)nc1NCCc1cccc(F)c1 [N-[(2R)-2-(methylamino)propyl](6-(2-cyanophenyl)-2-{[2-(3-fluorophenyl)ethyl]amino}(3-pyridyl))carboxamide]	1890
CN[C@@H](C)CNC(=O)c1ccc(-c2ccccc2C#N)nc1NCCc1cccc(F)c1 [N-[(2S)-2-(methylamino)propyl](6-(2-cyanophenyl)-2-{[2-(3-fluorophenyl)ethyl]amino}(3-pyridyl))carboxamide]	944
N#Cc1ccccc1-c1ccc(C(=O)NCc2ccc(F)c(F)c2)c(NCCc2cccc(F)c2)n1 [N-[(3,4-difluorophenyl)methyl](6-(2-cyanophenyl)-2-{[2-(3-fluorophenyl)ethyl]amino}(3-pyridyl))carboxamide]	1980
